Laboratory results published in patent US5948754A, “Cyclic hexapeptides, their production and use” (Takeda Chemical Industries, Ltd., priority 1993, dated 1999).
Where a SMILES comes first, the peptide text is derived from it. [ ]: non-standard residue; d: D form. The star is where a group is joined. Piperazinyl(4-(2-MeOPh)) = COc1ccccc1N1CCN(*)CC1; Piperazinyl(4-Ph) = c1ccc(N2CCN(*)CC2)cc1; dGly(2-thienyl) = N[C@@H](C(=O)O)c1cccs1; d(tBuAla) = CC(C)(C)C[C@@H](N)C(=O)O

Columns and labels:
[1] = target: T1, endothelin A (ETA) receptors (Sus scrofa, UniProt Q29010); assay: Determination of ETA receptor binding activity ([125I]ET-1, swine ventricular muscle membrane fraction); conditions: [125I]ET-1 binding, 25° C., 1 hour
T1 construct: A membrane fraction prepared from swine ventricular muscle; from tissue; host or cells: swine ventricular muscle membrane fraction
T1 sequence (Q29010 21-427): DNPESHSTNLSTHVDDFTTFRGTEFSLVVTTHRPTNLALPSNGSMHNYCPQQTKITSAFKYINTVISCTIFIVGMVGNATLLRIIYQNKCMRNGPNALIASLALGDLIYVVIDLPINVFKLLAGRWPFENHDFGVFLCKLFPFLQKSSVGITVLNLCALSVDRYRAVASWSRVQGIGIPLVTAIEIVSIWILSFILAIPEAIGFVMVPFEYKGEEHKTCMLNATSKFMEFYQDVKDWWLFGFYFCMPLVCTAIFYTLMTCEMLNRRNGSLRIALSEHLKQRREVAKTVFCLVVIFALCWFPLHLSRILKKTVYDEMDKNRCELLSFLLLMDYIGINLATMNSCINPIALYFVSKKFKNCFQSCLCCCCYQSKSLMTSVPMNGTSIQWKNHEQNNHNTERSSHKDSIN
Procedure: Determination of endothelin receptor binding activity (1) Determination of ETA receptor binding activity
A membrane fraction prepared from swine ventricular muscle was diluted to 12 μg/ml with an assaying buffer and dispensed to assaying tubes at 100 μl per tube. To this membrane fraction suspension were added 2 μl of a solution of endothelin-l labeled with 100 pmole of radioactive iodine ([^125 I]ET-1, produced by Amersham Medical Ltd.) and 3 μl of a solution of the subject compound at various concentrations, followed by incubation at 25° C. for 1 hour. The suspension was then diluted with an ice-cooled assaying buffer and filtered through a glass filter GF/F (produced by Whatman K.K.). The membrane fraction containing endothelin A (ETA) receptors and receptor-bound [^125 I)ET-1 were recovered on the filter. The radioactivity retained on the filter was measured to obtain the amount of [^125 I]ET-1 bound to the ETA receptors. The amount of [^125 I,]ET-1 bound in the presence of ET-1 in great excess as the test compound was taken as the amount of nonspecific binding. The amount of specific binding (SPB) of [^125 I]ET-1 was obtained by subtracting the amount of nonspecific binding from the total amount of binding determined. The percent SPB value at test compound concentration C (molar concentration by volume) was defined as the percent ratio of the amount of specific binding relative to the amount of specific binding obtained at a test compound concentration of 0. The thus-obtained value was substituted for the following "pseudo-Hill's equation" to calculate the test compound concentration (IC50 value) required to have a value of 50% for the amount of specific binding of [125I]ET-1.
(§1) log[%SPB/(100 - %SPB)]=n[logC - log(IC50)]
(§2) n: Pseudo-Hill's coefficient

[2] = target: T2, endothelin B (ETB) receptors (Bos taurus, UniProt P28088); assay: Determination of ETB receptor binding activity ([125I]ET-1, bovine brain membrane fraction); conditions: [125I]ET-1 binding, 25° C., 1 hour
T2 construct: A membrane fraction prepared from a bovine brain; from tissue; host or cells: bovine brain membrane fraction
T2 sequence (P28088 27-441): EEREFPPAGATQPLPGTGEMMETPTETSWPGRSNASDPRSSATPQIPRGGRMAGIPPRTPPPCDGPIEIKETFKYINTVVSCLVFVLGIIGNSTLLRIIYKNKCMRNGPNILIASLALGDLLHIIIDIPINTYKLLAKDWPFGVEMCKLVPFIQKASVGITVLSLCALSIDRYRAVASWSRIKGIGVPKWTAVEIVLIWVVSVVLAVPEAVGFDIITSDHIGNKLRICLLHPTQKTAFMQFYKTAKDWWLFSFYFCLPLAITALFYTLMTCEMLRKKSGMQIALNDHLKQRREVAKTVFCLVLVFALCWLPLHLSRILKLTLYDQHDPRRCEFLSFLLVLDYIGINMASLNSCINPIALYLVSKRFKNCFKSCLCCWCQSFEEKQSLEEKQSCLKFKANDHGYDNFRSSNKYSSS
Procedure: (2) Determination of ETB receptor binding activity
A membrane fraction prepared from a bovine brain was diluted to 150 μg/ml with an assaying buffer and dispensed to assaying tubes at 100 μl per tube. To this membrane fraction suspension were added 2 μl of a solution of endothelin-1 labeled with 100 pM of radioactive iodine ([^125 I]ET-1, produced by Amersham Medical Ltd.) and 3 μl of a solution of the subject compound at various concentrations, followed by incubation at 25° C. for 1 hour. The suspension was then diluted with an ice-cooled assaying buffer and filtered through a glass filter GF/F (produced by Whatman K.K.). The membrane fraction containing endothelin B (ETB) receptors and receptor-bound [^125 I)ET-1 were recovered on the filter. The radioactivity retained on the filter was measured to obtain the amount of (^125 I]ET-1 bound to the ETB receptors. The amount of (^125 I]ET-1 bound in the presence of ET-1 in great excess as the test compound was taken as the amount of nonspecific binding. The amount of specific binding (SPB) of [^125 I]ET-1 was obtained by subtracting the amount of nonspecific binding from the total amount of binding determined. The percent SPB value at test compound concentration C (molar concentration by volume) was defined as the percent ratio of the amount of specific binding relative to the amount of specific binding obtained at a test compound concentration of 0. The thus-obtained value was substituted for the following "pseudo-Hill's equation" to calculate the test compound concentration (IC50 value) required to have a value of 50% for the amount of specific binding of [^125 I]ET-1.
as §1, §2

[3] = tested on: porcine coronary vein ring preparations constricted with sarafotoxin S6c; assay: Determination of porcine coronary vein relaxation activity; conditions: peptide at 0.01 μM; vein constricted with S6c 1 nM for 45 min; relative to constriction of S6c (100%)
Procedure: Determination of porcine coronary vein relaxation activity
Ring preparations of porcine coronary vein (3 mm in a diameter) were placed in an organ bath filled with Krebs solution gassed with 95% O2 /5%CO2 at 37° C. and allowed to stand for 1.5 h at a resting load of 0.5 g tension for vein. The preparations were constricted with 60 mM KCl for 15 min and then washed and allowed to stand for 1.5 h at the resting load. The vein preparations constricted with sarafotoxin S6c (S6c) at 1 nM for 45 min were used to determine the effect of the peptide of Example 4 at 0.01 μM. Result is shown in the following Table as the relaxation rate relative to the constriction of S6c (100%).

Compound	IC50 [1]	IC50 [2]	relaxation rate (%) [3]
COc1ccccc1N1CCN(C(=O)C[C@@H]2NC(=O)[C@@H](CC(=O)O)NC(=O)[C@@H](Cc3c[nH]c4ccccc34)NC(=O)[C@H](CC(C)C)NC(=O)[C@@H](CC(C)(C)C)NC(=O)[C@H](CC(=O)O)NC2=O)CC1 [Example 1, cyclo[--D--Asp--Asp(B7)--Asp--D--γMeLeu--L--Leu--D--Trp--]] (cyclo(D(Piperazinyl(4-(2-MeOPh)))D[d(tBuAla)]L[dW][dD]))	0.18 nM	11 nM	
CC(C)C[C@@H]1NC(=O)[C@@H](CC(C)(C)C)NC(=O)[C@H](CC(=O)O)NC(=O)[C@H](CC(=O)N2CCN(c3ccccc3)CC2)NC(=O)[C@@H](CC(=O)O)NC(=O)[C@@H](Cc2c[nH]c3ccccc23)NC1=O [Example 2, cyclo(--D--Asp--L--Asp(B1)--L--Asp--D--γMeLeu--L--Leu--D--Trp--)] (cyclo(D(Piperazinyl(4-Ph))D[d(tBuAla)]L[dW][dD]))	0.18 nM	28 nM	
COc1ccccc1N1CCN(C(=O)C[C@@H]2NC(=O)[C@@H](CC(=O)O)NC(=O)[C@@H](Cc3cn(C(C)=O)c4ccccc34)NC(=O)[C@H](CC(C)C)NC(=O)[C@@H](CC(C)(C)C)NC(=O)[C@H](CC(=O)O)NC2=O)CC1 [Example 3, cyclo(--D--Asp--L--Asp(B7)--L--Asp--D--γMeLeu--L--Leu--D--Trp(Ac)--)] (cyclo(D(Piperazinyl(4-(2-MeOPh)))D[d(tBuAla)]L[dW](Ac)[dD]))	0.49 nM	14 nM	
CC(C)C[C@@H]1NC(=O)[C@@H](c2cccs2)NC(=O)[C@H](CC(=O)O)NC(=O)[C@H](CC(=O)N2CCN(c3ccccc3)CC2)NC(=O)[C@@H](CC(=O)O)NC(=O)[C@@H](Cc2c[nH]c3ccccc23)NC1=O [Reference Example 1, cyclo(--D--Asp--L--Asp(B1)--L--Asp--D--Thg(2)--L--Leu--D--Trp--), reference compound] (cyclo(D(Piperazinyl(4-Ph))D[dGly(2-thienyl)]L[dW][dD]))	0.08 nM	120 nM	
cyclo[--D--Asp--Asp(B7)--Asp--D--γMeLeu--Leu--D--Trp--].2Na [Example 4]			66%
